pKi: −log10 of the molar value.

The target of this test is Transient receptor potential cation channel subfamily V member 1 (Homo sapiens, UniProt Q8NER1). Put plainly: Antagonist activity at human TRPV1 heterologously expressed in CHO cells assessed as inhibition of capsaicin-induced activation by FLIPR assay.
Transient receptor potential cation channel subfamily V member 1, sequence (Q8NER1 whole entry): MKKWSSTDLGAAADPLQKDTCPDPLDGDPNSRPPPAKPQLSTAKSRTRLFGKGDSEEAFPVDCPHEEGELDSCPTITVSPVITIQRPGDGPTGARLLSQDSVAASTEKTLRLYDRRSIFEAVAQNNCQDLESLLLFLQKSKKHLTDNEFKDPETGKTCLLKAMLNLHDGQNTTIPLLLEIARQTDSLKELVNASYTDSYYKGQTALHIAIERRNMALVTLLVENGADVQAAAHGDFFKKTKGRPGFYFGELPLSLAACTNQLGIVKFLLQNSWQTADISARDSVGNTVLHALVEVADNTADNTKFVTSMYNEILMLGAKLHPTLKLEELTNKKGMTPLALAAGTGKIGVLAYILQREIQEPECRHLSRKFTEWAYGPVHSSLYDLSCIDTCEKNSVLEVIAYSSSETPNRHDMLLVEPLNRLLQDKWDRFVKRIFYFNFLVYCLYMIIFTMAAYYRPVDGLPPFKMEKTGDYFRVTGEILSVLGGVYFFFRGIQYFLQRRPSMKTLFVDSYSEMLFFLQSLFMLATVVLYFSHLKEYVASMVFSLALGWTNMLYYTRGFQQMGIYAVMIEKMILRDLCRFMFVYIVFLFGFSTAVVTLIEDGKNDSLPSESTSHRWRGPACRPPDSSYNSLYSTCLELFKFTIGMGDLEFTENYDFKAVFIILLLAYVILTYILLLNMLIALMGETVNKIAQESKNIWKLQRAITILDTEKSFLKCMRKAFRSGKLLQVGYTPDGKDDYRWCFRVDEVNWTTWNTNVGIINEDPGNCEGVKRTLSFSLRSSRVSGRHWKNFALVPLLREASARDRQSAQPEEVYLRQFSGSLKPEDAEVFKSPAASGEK

Regarding `CCCCCOc1cc(C(F)(F)F)ccc1CNC(=O)C(C)c1ccc(NS(C)(=O)=O)c(F)c1` (stereo unspecified), the pKi was 9.15.

The term pKi denotes the negative decadic logarithm of the Ki, by convention in mol/L.

Source of the values: BindingDB's records for doi:10.1016/j.bmc.2015.10.001 (Seoul National University, 2015).
